Measured values as given in PubChem BioAssay AID330 (DTP/NCI, 2004).
“And” between values parts separate entries of the source, which are not always exact repeats. Identical values can stand only once. Inconclusive results and toxic doses are left out. Rule for the calls: active = survival T/C of 150% or more; inactive = T/C below 125% in these data.

Test system: P388 leukemia ip, CD2F1 mice, survival T/C
Assay: NCI In Vivo Anticancer Drug Screen. Data for tumor model P388 Leukemia (intraperitoneal) in CD2F1 (CDF1) mice
Settings: endpoint: median survival time, higher = longer survival
Outline: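 Mice carrying the transplanted tumor received test compound or vehicle. Survival was recorded in each group, and the value is the treated-group measurement divided by that of the vehicle-treated control group.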

[1] = dose: 25.0 mg/kg/injection, schedule: Q01DX009 (ip), vehicle: Klucel (hydroxypropylcellulose) (HPC)
[2] = dose: 50.0 mg/kg/injection, schedule: Q01DX009 (ip), vehicle: Klucel (hydroxypropylcellulose) (HPC)
[3] = dose: 50.0 mg/kg/injection, schedule: Q01DX005 (ip), vehicle: saline with Tween-80
[4] = dose: 100.0 mg/kg/injection, schedule: Q01DX005 (ip), vehicle: saline with Tween-80
[5] = dose: 200.0 mg/kg/injection, schedule: Q01DX005 (ip), vehicle: saline with Tween-80
[6] = dose: 12.5 mg/kg/injection, schedule: Q01DX009 (ip), vehicle: saline
[7] = dose: 25.0 mg/kg/injection, schedule: Q01DX009 (ip), vehicle: saline
[8] = dose: 50.0 mg/kg/injection, schedule: Q01DX009 (ip), vehicle: saline
[9] = dose: 200.0 mg/kg/injection, schedule: Q01DX009 (ip), vehicle: saline
[10] = dose: 12.5 mg/kg/injection, schedule: Q01DX009 (ip), vehicle: saline with Tween-80
[11] = dose: 25.0 mg/kg/injection, schedule: Q01DX009 (ip), vehicle: saline with Tween-80
[12] = dose: 50.0 mg/kg/injection, schedule: Q01DX009 (ip), vehicle: saline with Tween-80
[13] = dose: 100.0 mg/kg/injection, schedule: Q01DX009 (ip), vehicle: saline
[14] = dose: 50.0 mg/kg/injection, schedule: Q01DX005 (ip), vehicle: Klucel (hydroxypropylcellulose) (HPC)
[15] = dose: 100.0 mg/kg/injection, schedule: Q01DX005 (ip), vehicle: Klucel (hydroxypropylcellulose) (HPC)
[16] = dose: 200.0 mg/kg/injection, schedule: Q01DX005 (ip), vehicle: Klucel (hydroxypropylcellulose) (HPC)

Measured: T/C

COc1c(C(C)C)cc2c(c1OC)C13CCCC(C)(C)C1C(OC3=O)C2NC(=O)CN1CCN(CCO)CC1 (stereo not drawn)
inactive: [1] 106 % of control | [2] 97 % of control | dose: 100.0 mg/kg/injection, schedule: Q01DX009 (ip), vehicle: Klucel (hydroxypropylcellulose) (HPC) 88 % of control

CC1CCC2(NC1)OC1CC3C4CCC5CC(OC6OC(CO)C(OC7OC(CO)C(O)C(OC8OCC(O)C(O)C8O)C7OC7OC(CO)C(O)C(O)C7O)C(O)C6O)CCC5(C)C4CCC3(C)C1C2C (stereo not drawn)
inactive: dose: 3.12 mg/kg/injection, schedule: Q04DX003 (ip), vehicle: Klucel (hydroxypropylcellulose) (HPC) 102 % of control | dose: 6.25 mg/kg/injection, schedule: Q04DX003 (ip), vehicle: Klucel (hydroxypropylcellulose) (HPC) 100 % of control | dose: 12.5 mg/kg/injection, schedule: Q04DX003 (ip), vehicle: Klucel (hydroxypropylcellulose) (HPC) 100 % of control and 91 % of control | dose: 50.0 mg/kg/injection, schedule: Q04DX003 (ip), vehicle: Klucel (hydroxypropylcellulose) (HPC) 89 % of control and 93 % of control

Cc1ccc(S(=O)(=O)N/N=C/c2cccc([N+](=O)[O-])c2O)cc1
inactive: [3] 101 % of control | [4] 104 % of control | [5] 93 % of control

COC(C(N)=O)c1ccccc1 (stereo not drawn)
inactive: [6] 120 % of control | [7] 110 % of control | [8] 103 % of control | [9] 103 % of control | dose: 400.0 mg/kg/injection, schedule: Q01DX009 (ip), vehicle: saline 106 % of control

O=C(O)C1(Cc2ccc(O)c(O)c2)NCCS1 (stereo not drawn)
inactive: dose: 100.0 mg/kg/injection, schedule: Q01DX001 (ip), vehicle: Klucel (hydroxypropylcellulose) (HPC) 104 % of control | dose: 200.0 mg/kg/injection, schedule: Q01DX001 (ip), vehicle: Klucel (hydroxypropylcellulose) (HPC) 100 % of control

c1ccc(C2=NCN3CC23c2ccccc2)cc1 (stereo not drawn)
inactive: [10] 98 % of control | [11] 98 % of control | [12] 99 % of control | dose: 100.0 mg/kg/injection, schedule: Q01DX009 (ip), vehicle: saline with Tween-80 95 % of control

N#CCCn1nnc2ccccc21
inactive: dose: 6.25 mg/kg/injection, schedule: Q01DX009 (ip), vehicle: Klucel (hydroxypropylcellulose) (HPC) 91 % of control | dose: 12.5 mg/kg/injection, schedule: Q01DX009 (ip), vehicle: Klucel (hydroxypropylcellulose) (HPC) 94 % of control | [1] 95 % of control | [2] 88 % of control

CC(C)(C)OC(OC1(C)COC1=O)C1(C)CO1 (stereo not drawn)
inactive: dose: 50.0 mg/kg/injection, schedule: Q01DX005 (ip), vehicle: saline 87 % of control | dose: 50.0 mg/kg/injection, schedule: Q01DX005 (ip), vehicle: water 103 % of control | dose: 100.0 mg/kg/injection, schedule: Q01DX005 (ip), vehicle: saline 86 % of control | dose: 100.0 mg/kg/injection, schedule: Q01DX005 (ip), vehicle: water 105 % of control | dose: 200.0 mg/kg/injection, schedule: Q01DX005 (ip), vehicle: saline 97 % of control | dose: 200.0 mg/kg/injection, schedule: Q01DX005 (ip), vehicle: water 90 % of control

C=C(C#N)CCl
inactive: dose: 25.0 mg/kg/injection, schedule: Q01DX001 (ip), vehicle: saline with Tween-80 104 % of control | dose: 50.0 mg/kg/injection, schedule: Q01DX001 (ip), vehicle: saline with Tween-80 95 % of control

CC1=CC(=O)C(O)C2(C)C1CC1OC(=O)C(OC(=O)/C=C(\C)C(C)C)C3C(C)C(O)C4(O)OCC13C42 (stereo not drawn)
inactive: dose: 0.25 mg/kg/injection, schedule: Q01DX005 (ip), vehicle: saline + alcohol 113 % of control | dose: 0.5 mg/kg/injection, schedule: Q01DX005 (ip), vehicle: saline + alcohol 121 % of control | dose: 1.0 mg/kg/injection, schedule: Q01DX005 (ip), vehicle: saline + alcohol 121 % of control

ClCC#CCOc1c(Cl)cccc1Cl
inactive: [8] 86 % of control | [13] 92 % of control | [9] 98 % of control

O=c1[nH]c(=O)c2sc3ncccc3c2[nH]1
inactive: dose: 6.25 mg/kg/injection, schedule: Q01DX009 (ip), vehicle: saline 119 % of control | [6] 100 % of control | [7] 101 % of control

Nc1ccc(N=Nc2cccc3c2Oc2ccccc2O3)c(N)n1
inactive: [3] 98 % of control | [4] 91 % of control | [5] 105 % of control

C1=NC2=C(CCc3ccccc32)C2=NCCN12
inactive: dose: 10.0 mg/kg/injection, schedule: Q04DX002 (ip), vehicle: saline with Tween-80 100 % of control | dose: 20.0 mg/kg/injection, schedule: Q04DX002 (ip), vehicle: saline with Tween-80 96 % of control | dose: 40.0 mg/kg/injection, schedule: Q04DX002 (ip), vehicle: saline with Tween-80 100 % of control

CN1C2=NC(=O)NC(=O)C23OC3c2ccccc21 (stereo not drawn) (tested in a mixture with another compound)
inactive: [14] 102 % of control | [15] 103 % of control

[B-][N+](C)(C)Cc1ccccc1
inactive: [10] 90 % of control | [11] 90 % of control | [12] 109 % of control

CC(=O)/C=C1/N(C)c2ccccc2C1(C)C
inactive: [14] 100 % of control | [15] 100 % of control | [16] 99 % of control

C=[CH][Sn]([Cl])([Cl])[CH]=C.COc1ccc(P(=O)(c2ccc(OC)cc2)c2ccc(OC)cc2)cc1
inactive: dose: 25.0 mg/kg/injection, schedule: Q04DX003 (ip), vehicle: saline 100 % of control and 113 % of control | dose: 50.0 mg/kg/injection, schedule: Q04DX003 (ip), vehicle: saline 100 % of control and 111 % of control | dose: 100.0 mg/kg/injection, schedule: Q04DX003 (ip), vehicle: saline 100 % of control and 115 % of control and 120 % of control | dose: 200.0 mg/kg/injection, schedule: Q04DX003 (ip), vehicle: saline 100 % of control and 111 % of control | dose: 400.0 mg/kg/injection, schedule: Q04DX003 (ip), vehicle: saline 117 % of control

COc1cccc2c1C(=O)c1c(O)c3c(c(O)c1C2=O)C[C@@](O)(C(C)=O)C[C@@H]3OC(=O)CCN
inactive: dose: 0.78 mg/kg/injection, schedule: Q01DX009 (ip), vehicle: water 112 % of control | dose: 1.56 mg/kg/injection, schedule: Q01DX009 (ip), vehicle: water 110 % of control | dose: 3.13 mg/kg/injection, schedule: Q01DX009 (ip), vehicle: water 118 % of control | dose: 8.33 mg/kg/injection, schedule: Q01DX009 (ip), vehicle: water 123 % of control | dose: 12.5 mg/kg/injection, schedule: Q01DX009 (ip), vehicle: water 120 % of control | dose: 18.8 mg/kg/injection, schedule: Q01DX009 (ip), vehicle: water 101 % of control | dose: 25.0 mg/kg/injection, schedule: Q01DX009 (ip), vehicle: water 118 % of control

C=C1N=NN(c2ccc([N+](=O)[O-])cc2)C1N1CCOCC1 (stereo not drawn)
inactive: dose: 60.0 mg/kg/injection, schedule: Q01DX005 (ip), vehicle: Klucel (hydroxypropylcellulose) (HPC) 100 % of control | dose: 120.0 mg/kg/injection, schedule: Q01DX005 (ip), vehicle: Klucel (hydroxypropylcellulose) (HPC) 101 % of control | dose: 240.0 mg/kg/injection, schedule: Q01DX005 (ip), vehicle: Klucel (hydroxypropylcellulose) (HPC) 105 % of control

CCOP(=S)(N/N=C/c1ccc2ccccc2c1O)OCC
inactive: [14] 109 % of control | [15] 106 % of control | [16] 95 % of control

CC1(c2ccccc2)OC1C(=O)N(c1ccccc1)c1ccccc1 (stereo not drawn)
inactive: dose: 100.0 mg/kg/injection, schedule: Q04DX003 (ip), vehicle: Klucel (hydroxypropylcellulose) (HPC) 96 % of control | dose: 200.0 mg/kg/injection, schedule: Q04DX003 (ip), vehicle: Klucel (hydroxypropylcellulose) (HPC) 94 % of control | dose: 400.0 mg/kg/injection, schedule: Q04DX003 (ip), vehicle: Klucel (hydroxypropylcellulose) (HPC) 88 % of control

Nc1nnc2nc(CC(=O)c3ccccc3[N+](=O)[O-])c(CC(=O)c3ccccc3[N+](=O)[O-])nn12
inactive: dose: 60.0 mg/kg/injection, schedule: Q01DX005 (ip), vehicle: saline with Tween-80 100 % of control | dose: 120.0 mg/kg/injection, schedule: Q01DX005 (ip), vehicle: saline with Tween-80 101 % of control | dose: 240.0 mg/kg/injection, schedule: Q01DX005 (ip), vehicle: saline with Tween-80 100 % of control

CCCCCCCCCCCCSCCSCCC
inactive: [8] 90 % of control | [13] 100 % of control | [9] 90 % of control
